# Experimental data as given in patent publication US4713374A, “Ganglioside derivatives” (priority 1984, dated 1987).
# Key:
# [1] = set-up: species or system Swiss mice; conditions: mouse, in vivo, iv
# Procedure: Labelled ganglioside is prepared as described by Suzuki et al. [J. Lipid Res. 13, 687-690 (1972)] and modified by Ghidoni et al. [Ital. J. Biochem. 23, 320-328 (1974)]. The ethyl and isopropyl esters are prepared by esterification of this labelled ganglioside. The specific radioactivity is measured both of the ganglioside and esters.
# Swiss mice obtained from Charles River (Calco), weighing about 20-25 g were treated by intravenous route with 10 μC of the products. 2-4-8-12-16 hours after administration, the animals were sacrificed by decapitation and their blood was gathered in heparinized flasks. The nonvolatile radioactivity was determined on blood samples by means of a Packard TRICARB scintillator and then identified with reference to ^3 H ganglioside and to the esters by TLC.
# PC12 cells = assay: Neurite sprouting in PC12 cells; assay type: cell-based; conditions: 10^-6 M, serum-free vehicle with 50 ng/ml NGF, third day; controls 21.5
# Procedure: The cells are then washed three times in a serum-free vehicle. […] This effect is evaluated by counting the number of cells with neurites at the third day.
# [2] = tested on: (Na^+, K^+) ATPase of the neuronal membrane; assay: (Na+,K+)ATPase activity of the neuronal membrane (rat brain P2 fraction); assay type: biochemical; conditions: concentration 50 (50 nM), incubation with neuronal membranes 37° C. two hours; controls 100; 120 min
# Procedure: a. Preparation of the raw mitochondrial fraction of rat brain (Fraction P2):
# The procedure used in the preparation of P2 fraction was taken from Morgan e coll., Biochem. Biophys. Acta 241, 37 (1971). (The various operations were carried out at 0° to 4° C.; the xg values are average centrifugal forces).
# Adult male Sprague Dawley rats (supplied by Charles River) (body weight 150-175 g) were decapitated and their brains were immediately removed and washed in an ice cold isotonic solution. After excision of the cerebellum, the brains were homogenized by effecting 12 up and down movements in a motor-driven glass and Telfon homogenizer (declared radial clearance 0.25 mm; 800 r.p.m.) using 4 vol. of homogenizing solution (0.32M saccharose containing 1 mM potassium phosphate buffer and […] of disodium EDTA, pH 7.27). The homogenized substance, filtered through four layers of fine gauze, was centrifuged at 1000 r.p.m. for 15 minutes. The resulting pellet was washed with the same initial volume of homogenizing solution and centrifuged as described above. The gathered supernatants were centrifuged at 17,500 r.p.m. for 25 minutes (these conditions of gravitational centrifugal force were used to obtain the maximum enrichment of nervous terminations in the fraction) and the pellet was washed four times in 9 volumes (each time) of homogenizing solution and centrifuged (17,500 r.p.m. for 25 minutes).
# The final pellet, known as "P2 fraction" contains as its principal component, whole mitochondria and nervous terminations. The final pellet was homogeneously resuspended with a suitable volume of homogenizing solution with a glass and Teflon homogenizer, and used immediately for the test. […]
# ATPase activity was measured by spectrophotometry according to Wallick and coll. […] The (Na^+, K^+)ATPase activity is determined by the difference between the total ATPase activity and the dependent ATPase Mg^2+ activity measured in the presence of 3×10^-5 M of Ouabain. […] The ATPase activity was expressed as International Unit (I.U.) (μmoles hydrolized ATP/mg protein/min). […]
t/2 of first phase of blood kinetic curve [1],"% increase in (Na^+, K^+) ATPase activity [2] [%]",SMILES,% of the no. of cells with neurites at 3rd day (PC12 cells) [%]
,133,"CCCCCCCCCCCCC/C=C/[C@@H](O)[C@H](CO[C@@H]1O[C@H](CO)[C@@H](O[C@@H]2O[C@H](CO)[C@H](O[C@@H]3O[C@H](CO)[C@H](O)[C@H](O[C@@H]4O[C@H](CO)[C@H](O)[C@H](O)[C@H]4O)[C@H]3NC(C)=O)[C@H](O[C@]3(C(=O)O)C[C@H](O)[C@@H](NC(C)=O)[C@H]([C@H](O)[C@H](O)CO)O3)[C@H]2O)[C@H](O)[C@H]1O)NC(=O)CCCCCCCCCCCCCCCCC [Monosialoganglioside GM1, ganglioside GM1, reference compound]",34.8
,132,"CCCCCCCCCCCCC/C=C/[C@@H](O)[C@H](CO[C@@H]1O[C@H](CO)[C@@H](O[C@@H]2O[C@H](CO)[C@H](O[C@@H]3O[C@H](CO)[C@H](O)[C@H](O[C@@H]4O[C@H](CO)[C@H](O)[C@H](O)[C@H]4O)[C@H]3NC(C)=O)[C@H](O[C@]3(C(=O)OC)C[C@H](O)[C@@H](NC(C)=O)[C@H]([C@H](O)[C@H](O)CO)O3)[C@H]2O)[C@H](O)[C@H]1O)NC(=O)CCCCCCCCCCCCCCCCC [Methylic ester of GM1, Methyl ester of the ganglioside GM1]",35.7

# The next lines start with the molecule.
SMILES,t/2 of first phase of blood kinetic curve [1],"% increase in (Na^+, K^+) ATPase activity [2] [%]",% of the no. of cells with neurites at 3rd day (PC12 cells) [%]
CCCCCCCCCCCCC/C=C/[C@@H](O)[C@H](CO[C@@H]1O[C@H](CO)[C@@H](O[C@@H]2O[C@H](CO)[C@H](O[C@@H]3O[C@H](CO)[C@H](O)[C@H](O[C@@H]4O[C@H](CO)[C@H](O)[C@H](O)[C@H]4O)[C@H]3NC(C)=O)[C@H](O[C@]3(C(=O)O)C[C@H](O)[C@@H](NC(C)=O)[C@H]([C@H](O)[C@H](O)CO)O3)[C@H]2O)[C@H](O)[C@H]1O)NC(=O)CCCCCCCCCCCCCCCCC [tritiated ganglioside],about three,,
"CCCCCCCCCCCCC/C=C/[C@@H](O)[C@H](CO[C@@H]1O[C@H](CO)[C@@H](O[C@@H]2O[C@H](CO)[C@H](O[C@@H]3O[C@H](CO)[C@H](O)[C@H](O[C@@H]4O[C@H](CO)[C@H](O)[C@H](O)[C@H]4O)[C@H]3NC(C)=O)[C@H](O[C@]3(C(N)=O)C[C@H](O)[C@@H](NC(C)=O)[C@H]([C@H](O)[C@H](O)CO)O3)[C@H]2O)[C@H](O)[C@H]1O)NC(=O)CCCCCCCCCCCCCCCCC [Amide of GM1, Amide of the ganglioside GM1]",,128,33.3
"CCCCCCCCCCCCC/C=C/[C@@H](O)[C@H](CO[C@@H]1O[C@H](CO)[C@@H](O[C@@H]2O[C@H](CO)[C@H](O[C@@H]3O[C@H](CO)[C@H](O)[C@H](O[C@@H]4O[C@H](CO)[C@H](O)[C@H](O)[C@H]4O)[C@H]3NC(C)=O)[C@H](O[C@]3(C(=O)N(C)C)C[C@H](O)[C@@H](NC(C)=O)[C@H]([C@H](O)[C@H](O)CO)O3)[C@H]2O)[C@H](O)[C@H]1O)NC(=O)CCCCCCCCCCCCCCCCC [Dimethylamide of GM1, Dimethylamide of the ganglioside GM1]",,,34.3
"CCCCCCCCCCCCC/C=C/[C@@H](O)[C@H](CO[C@@H]1O[C@H](CO)[C@@H](O[C@@H]2O[C@H](CO)[C@H](O[C@@H]3O[C@H](CO)[C@H](O)[C@H](O[C@@H]4O[C@H](CO)[C@H](O)[C@H](O)[C@H]4O)[C@H]3NC(C)=O)[C@H](O[C@]3(C(=O)OC(C)C)C[C@H](O)[C@@H](NC(C)=O)[C@H]([C@H](O)[C@H](O)CO)O3)[C@H]2O)[C@H](O)[C@H]1O)NC(=O)CCCCCCCCCCCCCCCCC [Isopropylic ester of GM1, Isopropyl ester of the ganglioside GM1]",,,37.0
"CCCCCCCCCCCCC/C=C/[C@@H](O)[C@H](CO[C@@H]1O[C@H](CO)[C@@H](O[C@@H]2O[C@H](CO)[C@H](O[C@@H]3O[C@H](CO)[C@H](O)[C@H](O[C@@H]4O[C@H](CO)[C@H](O)[C@H](O)[C@H]4O)[C@H]3NC(C)=O)[C@H](O[C@]3(C(=O)NCC)C[C@H](O)[C@@H](NC(C)=O)[C@H]([C@H](O)[C@H](O)CO)O3)[C@H]2O)[C@H](O)[C@H]1O)NC(=O)CCCCCCCCCCCCCCCCC [Ethylamide of GM1, Ethylamide of the ganglioside GM1]",,,32.2
